Assay results: patent publication US10526291B2, “Potent dual BRD4-kinase inhibitors as cancer therapeutics” (H. Lee Moffitt Cancer Center and Research Institute, Inc., priority 2014, dated 2020)

Tests used:
MM.1S cells = assay: MM.1S cell survival, MTT assay; type: cell-based; settings: Homo sapiens, MM1.S, 72 h, 72 hours compound exposure
BRD4 = BRD4 (Homo sapiens, UniProt O60885); assay: Differential Scanning Fluorimetry (DSF), stability of BRD4 upon ligand binding; settings: for ΔTm at 4 µM: 100 μM protein, 4 μM compound and 2% DMSO; for IC50: estimated
Method: DSF=Differential Scanning Fluorimetry; provides a measure of the increased stability of BRD4 upon ligand binding The DSF experiment was run at 100 μM protein, 4 μM compound and 2% DMSO.

HEK293 = HEK293 cell IC50; type: cell-based; settings: Homo sapiens

SMILES | IC50 (MM.1S cells) | ΔTm at 4 µM (BRD4) | IC50 (BRD4) | IC50 (HEK293)
CN1CCC(NC(=O)c2ccc(Nc3ncc(F)c(Nc4ccc(Cl)c(NS(=O)(=O)C(C)(C)C)c4)n3)cc2F)CC1 | 120 nM | 9.91 ± 0.039 °C | 40.5 nM | –
COc1cc(Nc2nc(Nc3ccc(N4CCN(C)CC4)cc3)nc3ccccc23)ccc1Cl | – | 4.9 ± 0.13 °C | 500 nM | 1700 nM
Cc1cnc(Nc2ccc(N3CCN(C)CC3)cc2)nc1Nc1cccc(S(=O)(=O)NC2CC2)c1 | 1200 nM | 7.3 ± 0.099 °C | 79 nM | 1200 nM
COc1cc(Nc2nc(Nc3ccc(N4CCN(C)CC4)cc3)ncc2C)cc(OC)c1OC | – | 6.9 ± 0.1 °C | 110 nM | 970 nM
COc1cc(Nc2nc(Nc3ccc(N4CCN(C)CC4)cc3)ncc2Cl)cc(OC)c1OC | – | 5.2 ± 0.02 °C | 400 nM | 2000 nM
CN1CCC(NC(=O)c2ccc(Nc3ncc(Cl)c(Nc4ccc(Cl)c(NS(=O)(=O)C(C)(C)C)c4)n3)cc2F)CC1 | 90 nM | 12 ± 0.5 °C | 10.5 nM | –
Cc1nc(Nc2ccc(N3CCN(C)CC3)cc2)nc(Nc2cccc(S(=O)(=O)NC(C)(C)CO)c2)c1C | – | 5.5 ± 0.17 °C | 320 nM | 4300 nM
Cc1nc(Nc2ccc(N3CCN(C)CC3)cc2)nc(Nc2cccc(S(=O)(=O)NC(C)(C)C)c2)c1C | – | 5.3 ± 0.064 °C | 370 nM | 120000 nM
Cc1cnc(Nc2ccc(N3CCN(C)CC3)cc2)nc1Nc1ccc(Cl)c([N+](=O)[O-])c1 | – | 2 ± 0.05 °C | 4700 nM | –
CN1CCN(c2ccc(Nc3nc4c(c(Nc5cccc(S(=O)(=O)NC(C)(C)C)c5)n3)CCC4)cc2)CC1 | – | 4.9 ± 0.11 °C | 500 nM | –
CN1CCN(c2ccc(Nc3ncc(Cl)c(Nc4cccc(S(=O)(=O)NC(C)(C)C)c4)n3)cc2)CC1 | – | 5.7 ± 0.054 °C | 270 nM | –
CC(C)S(=O)(=O)Nc1cccc(Nc2nc(Nc3ccc(N4CCN(C)CC4)cc3)nc3c2CCC3)c1 | – | 4.3 ± 0.14 °C | 770 nM | –
CN1CCN(c2ccc(Nc3ncc(CO)c(Nc4cccc(NS(=O)(=O)C(C)(C)C)c4)n3)cc2)CC1 | – | 3.1 ± 0.08 °C | 2000 nM | –
Cc1cnc(Nc2ccc(N3CCN(C)CC3)cc2)nc1Nc1cccc(NS(=O)(=O)C(C)C)c1 | – | 7.5 ± 0.14 °C | 66 nM | –
Cc1nc(Nc2ccc(N3CCOCC3)cc2)nc(Nc2cccc(S(=O)(=O)NC(C)(C)C)c2)c1C | – | 1.9 ± 0.17 °C | 5030 nM | –
CN1CCN(c2ccc(Nc3nc(Nc4cccc(NS(=O)(=O)C5CC5)c4)c4ccccc4n3)cc2)CC1 | – | 5.8 ± 0.11 °C | 260 nM | –
COc1cc(Nc2nc(Nc3ccc(N4CCNCC4)cc3)ncc2C)ccc1Cl | – | 7.1 ± 0.15 °C | 92 nM | –
Cc1cnc(Nc2ccc(N3CCN(C)CC3)cc2)nc1Nc1ccc(Cl)c(OC(C)C)c1 | – | 6.3 ± 0.1 °C | 170 nM | –
CCOC(=O)c1cnc(Nc2ccc(N3CCN(C)CC3)cc2)nc1Nc1ccc(Cl)c(OC)c1 | – | 0.24 ± 0.13 °C | 18000 nM | –
CC(C)NS(=O)(=O)c1cccc(Nc2nc(Nc3ccc(N4CCOCC4)cc3)ncc2Br)c1 | – | -0.79 °C | 39800 nM | –
CN1CCN(c2ccc(Nc3nc4c(c(Nc5cccc(NS(=O)(=O)C(C)(C)C)c5)n3)COC4)cc2)CC1 | – | 6 ± 0.13 °C | 220 nM | –
COc1ccc(Nc2nc(C)c(C)c(Nc3cccc(S(N)(=O)=O)c3)n2)cc1 | – | 0.12 ± 0.13 °C | 19800 nM | –
Cc1cnc(Nc2ccc(N3CCN(C)CC3)cc2)nc1Nc1cccc(S(=O)(=O)NC(C)C)c1 | – | 6 ± 0.1 °C | 210 nM | –

SMILES | IC50 (MM.1S cells) | ΔTm at 4 µM (BRD4) | IC50 (BRD4) | IC50 (HEK293)
CC(C)NS(=O)(=O)c1cccc(Nc2nc(Nc3ccc(N4CCN(C)CC4)cc3)nc3ccccc23)c1 | – | 5 ± 0.13 °C | 480 nM | –
CCc1cnc(Nc2ccc(N3CCOCC3)cc2)nc1Nc1cccc(S(=O)(=O)NC(C)C)c1 | – | -0.29 °C | 27100 nM | –
CCOc1cc(Nc2nc(Nc3ccc(N4CCN(C)CC4)cc3)ncc2C)ccc1Cl | – | 6.4 ± 0.0066 °C | 160 nM | –
COc1cc(C(=O)NC2CCN(C)CC2)ccc1Nc1ncc(C)c(Nc2cc(OC)c(Cl)c(OC)c2)n1 | – | 3 ± 0.11 °C | 2200 nM | –
Cc1cnc(Nc2ccc(N3CCN(C)CC3)cc2)nc1Nc1ccc2c(c1)OCCO2 | – | 4.4 ± 0.11 °C | 740 nM | –
Cc1cnc(Nc2ccc(N3CCN(C)CC3)cc2)nc1Nc1ccc(Cl)c(NS(=O)(=O)c2ccccc2)c1 | – | 4.1 ± 0.1 °C | 960 nM | –
CN1CCN(c2ccc(Nc3ncc(Cl)c(Nc4cccc(NS(=O)(=O)C5CC5)c4)n3)cc2)CC1 | – | 6.9 ± 0.15 °C | 110 nM | 3600 nM
Cc1cnc(Nc2ccc(CC(=O)N3CCN(C)CC3)cc2)nc1Nc1ccc(Cl)c(Cl)c1 | – | 4.7 ± 0.14 °C | 580 nM | –
CN1CCN(c2ccc(Nc3nc4c(c(Nc5ccc(Cl)c(NS(=O)(=O)C6CC6)c5)n3)COC4)cc2)CC1 | – | 5.4 ± 0.2 °C | 350 nM | –
CC(C)(C)c1cccc(Nc2nc(Nc3ccc(N4CCOCC4)cc3)ncc2Cl)c1 | – | -0.34 °C | 28200 nM | –
COc1cc(Nc2nc(Nc3ccc(N4CCN(C)CC4)cc3)ncc2C)cc(OC)c1Cl | 1100 nM | 7.6 ± 0.15 °C | 63 nM | –
Cc1cnc(Nc2ccc(N3CCN(C)CC3)cc2)nc1Nc1cccc(S(=O)(=O)NC(C)(C)CO)c1 | – | 6.5 ± 0.18 °C | 150 nM | 3600 nM
CN1CCN(c2ccc(Nc3nc4c(c(Nc5cccc(NS(=O)(=O)C(C)(C)C)c5)n3)CCC4)cc2)CC1 | – | 6.4 ± 0.12 °C | 150 nM | –
Cc1cnc(Nc2ccc(N3CCN(C)CC3)cc2)nc1Nc1cccc(NS(=O)(=O)C2(C)CC2)c1 | – | 7.5 ± 0.23 °C | 68 nM | –
CCc1cnc(Nc2ccc(N3CCOCC3)cc2)nc1Nc1cccc(S(=O)(=O)NC(C)(C)C)c1 | – | -0.0084 °C | 21800 nM | –
CC(C)NS(=O)(=O)c1cccc(Nc2nc(Nc3ccc(N4CCN(C)CC4)cc3)ncc2Cl)c1 | – | 4.6 ± 0.12 °C | 630 nM | –
CN1CCN(c2ccc(Nc3ncc(F)c(Nc4ccc(Cl)c(NS(=O)(=O)C(C)(C)C)c4)n3)cc2)CC1 | – | 7.2 ± 0.17 °C | 85 nM | –
COc1cc(Nc2cc(C)nc(Nc3ccc(N4CCN(C)CC4)cc3)n2)ccc1Cl | – | 2.6 ± 0.095 °C | 2900 nM | –
CN1CCN(C(=O)Cc2ccc(Nc3ncc(F)c(Nc4ccc(C(=O)NC5CC5)cc4)n3)cc2)CC1 | – | 4.2 ± 0.2 °C | 850 nM | –
COc1cccc(Nc2nc(Nc3ccc(N4CCN(C)CC4)cc3)ncc2Cl)c1 | – | 1.68 ± 0.078 °C | 5960 nM | –
Cc1ccc(Nc2nc(Nc3ccc(C(=O)NC4CCN(C)CC4)c(F)c3)ncc2C)cc1S(=O)(=O)NC1CCC1 | – | 7.8 ± 0.15 °C | 54 nM | –
Cc1cnc(Nc2ccc(N3CCN(C)CC3)cc2)nc1Nc1cccc(NC(=O)C(C)C)c1 | – | 4.1 ± 0.12 °C | 900 nM | –
COc1cc(Nc2nc(Nc3ccc(N4CCN(C)CC4)cc3)ncc2C)c(OC)cc1Cl | – | 0.57 ± 0.25 °C | 14000 nM | –

SMILES | IC50 (MM.1S cells) | ΔTm at 4 µM (BRD4) | IC50 (BRD4) | IC50 (HEK293)
Cc1cnc(Nc2ccc(N3CCN(C)CC3)c(F)c2)nc1Nc1ccc2c(c1)N(S(=O)(=O)C(C)(C)C)CC2 | – | 12.1 ± 0.105 °C | 9.8 nM | –
COc1cc(Nc2ccnc(Nc3ccc(N4CCN(C)CC4)cc3)n2)ccc1Cl | – | 2.5 ± 0.069 °C | 3200 nM | –
Cc1cnc(Nc2ccc(N3CCN(C)CC3)cc2)nc1Nc1ccc(F)c(NS(=O)(=O)C(C)(C)C)c1 | – | 9.5 ± 0.07 °C | 14 nM | –
COc1cc(Nc2ncc(C(F)(F)F)c(Nc3ccc(N4CCN(C)CC4)cc3)n2)ccc1Cl | – | 0.56 ± 0.37 °C | 14100 nM | –
Cc1cnc(Nc2ccc(CC(=O)N3CCN(C)CC3)cc2)nc1Nc1ccc(Cl)cc1 | – | 4.1 ± 0.21 °C | 930 nM | –
Cc1ccc(Nc2nc(Nc3ccc(N4CCN(C)CC4)cc3)nc3ccccc23)cc1S(=O)(=O)NC(C)(C)C | – | 6.1 ± 0.032 °C | 200 nM | –
Cc1cnc(Nc2ccc(N3CCN(C)CC3)c(F)c2)nc1Nc1ccc2c(c1)N(S(=O)(=O)C(C)(C)C)CCC2 | – | 10.5 ± 0.15 °C | 27.7 nM | –
CCCS(=O)(=O)Nc1cc(Nc2nc(Nc3ccc(N4CCN(C)CC4)cc3)ncc2C)ccc1Cl | – | 6.7 ± 0.15 °C | 130 nM | –
COc1cc(Nc2nc(Nc3ccc(N4CCN(C)CC4)cc3)ncc2C(=O)O)ccc1Cl | – | 0.0094 ± 0.11 °C | 22000 nM | –
Cc1cnc(Nc2ccc(N3CCN(C)CC3)cc2)nc1Nc1ccc(C(=O)NC2CC2)cc1 | – | 6.5 ± 0.11 °C | 150 nM | –
Cc1ccc(Nc2nc(Nc3ccc(N4CCN(C)CC4)cc3)ncc2C)cc1S(=O)(=O)NC1CCC1 | – | 6.7 ± 0.13 °C | 130 nM | –
CCc1cnc(Nc2ccc(N3CCN(C)CC3)cc2)nc1Nc1ccc(Cl)c(OC)c1 | – | 1.3 ± 0.11 °C | 7980 nM | –
Cc1cnc(Nc2ccc(N3CCN(C)CC3)cc2)nc1Nc1cccc(NS(=O)(=O)CC(C)C)c1 | – | 6.58 ± 0.103 °C | 347 nM | –
Cc1cnc(Nc2cc(F)c(N3CCN(C)CC3)c(F)c2)nc1Nc1ccc(Cl)c(NS(=O)(=O)C(C)(C)C)c1 | – | 13.8 ± 0.191 °C | 3.29 nM | –
Cc1ccc(Nc2nc(Nc3ccc(N4CCN(C)CC4)cc3)ncc2C)cc1NS(=O)(=O)C(C)(C)C | – | 9.2 ± 0.12 °C | 18 nM | –
Cc1cnc(Nc2ccc(N3CCN(C)CC3)c(C(F)(F)F)c2)nc1Nc1cccc(NS(=O)(=O)C(C)(C)C)c1 | – | 8.12 ± 0.044 °C | 129 nM | –
Cc1cnc(Nc2ccc(N3CCN(C)CC3)c(F)c2)nc1Nc1ccc(Cl)c(NS(=O)(=O)CC(C)C)c1 | – | 8.89 ± 0.044 °C | 74.8 nM | –
CC(C)NS(=O)(=O)c1cccc(Nc2nc(N3CCN(c4ccc(N)cc4)CC3)ncc2Br)c1 | – | 0.16 °C | 19200 nM | –
Cc1cnc(Nc2ccc(N3CCN(C)CC3)cc2)nc1Nc1ccc2c(c1)N(S(=O)(=O)C(C)(C)C)CC2 | – | 9.97 ± 0.08 °C | 39 nM | –
CN1CCN(c2ccc(Nc3ncc(Cl)c(Nc4cccc(S(=O)(=O)NC(C)(C)CO)c4)n3)cc2)CC1 | – | 6.1 ± 0.15 °C | 200 nM | 1500 nM
Cc1cnc(Nc2ccc(N3CCN(C)CC3)cc2)nc1Nc1cccc([N+](=O)[O-])c1 | – | 3.17 ± 0.142 °C | 3130 nM | –
